Assay results as given in US12338256B2, “Aza-tetracyclic oxazepine compounds and uses thereof” (Genentech, Inc., priority 2022, dated 2025).

What was measured:
Type in all cases: cell-based
[1] = test system: AsPC-1 (homozygous mutant KRAS G12D human pancreatic cell line); assay: KRAS 3D-Cell Proliferation Assay, AsPC-1 (Example 503); conditions: Homo sapiens, ASPC1, 168 h, AsPC-1 3D culture, 7 days, CellTiter-Glo 3D; read-out: Prolif AsPC-1 3D ATP IC50
Method: Example 503: KRAS 3D-Cell Proliferation Assays. Cellular potencies of compounds are assessed by evaluating inhibition of proliferation in 3D cultures of homozygous mutant KRAS G12D human pancreatic cell lines (AsPC-1 and HPAC) as compared to a KRAS wild type human lung adenocarcinoma cell line (PC-9 and/or H1975). Cells are seeded into 384-well black round-bottom, ultra-low attachment assay plates in 50 uL cell growth medium (RPMI-1640 with 10% fetal bovine serum and 2 mM L-glutamine). After overnight incubation at 37° C. and 5% CO2, compounds solubilized in DMSO are added as dilution series to the wells in a total volume of 150 nL (0.3% DMSO final). The cells are incubated for 7 days at 37° C. and 5% CO2. Cell proliferation is quantitated by addition of 40 uL/well of CellTiter-GloÒ 3D (Promega), and the well contents are mixed 20× at high speed using liquid handling automation workstation (Bravo with 384-well head) and centrifuged at 1500 rpm for 2 minutes to eliminate bubbles. This reagent in combination with mechanical disruption releases the cellular ATP to promote activity in a luciferase-based enzyme/substrate chemiluminescent detection system. After a 30-minute incubation under ambient conditions with shaking and an additional 10 minutes without shaking, the luminescence is read on a plate reader (e.g., EnVision [PerkinElmer]). The results are normalized to percent inhibition based on the following control samples: DMSO (0% inhibition) and 1 μM staurosporine (100% inhibition). The normalized luminescence results are plotted against compound concentration, and the data are fit to a 4-parameter Hill equation to determine the IC50 values.

[2] = test system: HPAC (homozygous mutant KRAS G12D human pancreatic cell line); assay: KRAS 3D-Cell Proliferation Assay, HPAC (Example 503); conditions: Homo sapiens, HPAC, 168 h, HPAC 3D culture, 7 days, CellTiter-Glo 3D; read-out: Prolif HPAC 3D ATP IC50
Procedure, shortened: (§1)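 KRAS G12D homozygous pancreatic lines and KRAS wild-type lung lines grown as 3D cultures in ultra-low-attachment wells in RPMI-1640/10% FBS, dosed after overnight with compound dilution series (0.3% DMSO final) for 7 days at 37 °C. ATP read by CellTiter-Glo 3D luminescence; IC50 from 4-parameter Hill fit, normalized to DMSO and 1 μM staurosporine.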

[3] = test system: H1975 (KRAS wild type human lung adenocarcinoma cell line); assay: KRAS 3D-Cell Proliferation Assay, H1975 (Example 503); conditions: Homo sapiens, NCI-H1975, 168 h, H1975 3D culture, 7 days, CellTiter-Glo 3D; read-out: Prolif H1975 3D ATP IC50
Procedure, shortened: as §1

Row | Compound | IC50 [1] | IC50 [2] | IC50 [3]
1 | Cc1c(F)c(N)cc(-c2nc3c4c(nc(OC[C@@]56CCCN5C[C@H](F)C6)nc4c2F)N2C[C@H]4CC[C@H](N4)[C@@H]2C(C)O3)c1C(F)(F)F (single isomer, unassigned) [237 (isomer 2)] | 200 nM | 3.63 nM | 1040 nM
2 | Cc1nc(N)cc(-c2nc3c4c(nc(OCC5(CN6CCOCC6)CC5)nc4c2F)N2C[C@H]4CC[C@H](N4)[C@H]2[C@H](C)O3)c1C(F)(F)F [Compound 210, 4-((5S,5aS,6S,9R)-1-Fluoro-5-methyl-12-((1-(morpholinomethyl)cyclopropyl)methoxy)-5a,6,7,8,9,10-hexahydro-5H-4-oxa-3,10a,11,13,14-pentaaza-6,9-methanonaphtho[1,8-ab]heptalene-2-yl)-6-methyl-5-(trifluoromethyl)pyridin-2-amine] | 3.6 nM | 1.81 nM | 868 nM
3 | Cc1c(F)c(N)cc(-c2nc3c4c(nc(OCC56C[C@@H](F)CN5C[C@H](F)C6)nc4c2F)N2C[C@H]4CC[C@H](N4)[C@H]2[C@H](C)O3)c1C(F)(F)F [Compound 140, 5-((5S,5aS,6S,9R)-12-(((2R,6R)-2,6-Difluorotetrahydro-1H-pyrrolizin-7a(5H)-yl)methoxy)-1-fluoro-5-methyl-5a,6,7,8,9,10-hexahydro-5H-4-oxa-3,10a,11,13,14-pentaaza-6,9-methanonaphtho[1,8-ab]heptalen-2-yl)-2-fluoro-3-methyl-4-(trifluoromethyl)aniline] | 4.4 nM | 2.53 nM | 2060 nM
4 | Cc1cc(N)c(F)c(-c2nc3c4c(nc(OC[C@@]56CCCN5C[C@H](F)C6)nc4c2F)N2C[C@H]4CC[C@H](N4)[C@H]2[C@H](C)O3)c1CC(F)(F)F [Compound 182, 2-Fluoro-3-((5S,5aS,6S,9R)-1-fluoro-12-(((2R,7aS)-2-fluorotetrahydro-1H-pyrrolizin-7°(5H)-yl)methoxy)-5-methyl-5°,6,7,8,9,10-hexahydro-5H-4-oxa-3,10°,11,13,14-pentaaza-6,9-methanonaphtho[1,8-ab]heptalen-2-yl)-5-methyl-4-(2,2,2-trifluoroethyl)aniline] | 8.3 nM | 4.12 nM | 1910 nM
5 | Cc1cc2[nH]ncc2c(-c2nc3c4c(nc(OC[C@@]56CCCN5C[C@H](F)C6)nc4c2F)N2C[C@H]4CC[C@H](N4)[C@H]2[C@H](C)O3)c1Cl [Compound 176, (5S,5aS,6S,9R)-2-(5-Chloro-6-methyl-1H-indazol-4-yl)-1-fluoro-12-(((2R,7aS)-2-fluorotetrahydro-1H-pyrrolizin-7a(5H)-yl)methoxy)-5-methyl-5a,6,7,8,9,10-hexahydro-5H-4-oxa-3,10a,11,13,14-pentaaza-6,9-methanonaphtho[1,8-ab]heptalene] | 200 nM | 168 nM | 15200 nM
6 | C[C@@H]1Oc2nc(-c3cc(N)c(F)c(F)c3CC(F)(F)F)c(F)c3nc(OC[C@@]45CCCN4C[C@H](F)C5)nc(c23)N2C[C@H]3CC[C@H](N3)[C@@H]12 [Compound 183, 2,3-Difluoro-5-((5S,5aS,6S,9R)-1-fluoro-12-(((2R,7aS)-2-fluorotetrahydro-1H-pyrrolizin-7a(5H)-yl)methoxy)-5-methyl-5a,6,7,8,9,10-hexahydro-5H-4-oxa-3,10a,11,13,14-pentaaza-6,9-methanonaphtho[1,8-ab]heptalene-2-yl)-4-(2,2,2-trifluoroethyl)aniline] | 4.2 nM | 2.32 nM | 852 nM
7 | Cc1c(F)c(N)cc(-c2nc3c4c(nc(OC[C@H]5[C@@H](O)CCN5C)nc4c2F)N2C[C@H]4CC[C@H](N4)[C@H]2[C@H](C)O3)c1C(F)(F)F [Compound 162, (2S,3S)-2-((((5S,5aS,6S,9R)-2-(5-Amino-4-fluoro-3-methyl-2-(trifluoromethyl)phenyl)-1-fluoro-5-methyl-5a,6,7,8,9,10-hexahydro-5H-4-oxa-3,10a,11,13,14-pentaaza-6,9-methanonaphtho[1,8-ab]heptalen-12-yl)oxy)methyl)-1-methylpyrrolidin-3-ol] | 200 nM | 48.7 nM | 9450 nM
8 | Cc1c(F)c(N)cc(-c2nc3c4c(nc(OCC5(CN6CCO[C@H](C)C6)CC5)nc4c2F)N2C[C@H]4CC[C@H](N4)[C@H]2[C@H](C)O3)c1C(F)(F)F [Compound 168, 2-Fluoro-5-((5S,5aS,6S,9R)-1-fluoro-5-methyl-12-((1-(((R)-2-methylmorpholino)methyl)cyclopropyl)methoxy)-5a,6,7,8,9,10-hexahydro-5H-4-oxa-3,10a,11,13,14-pentaaza-6,9-methanonaphtho[1,8-ab]heptalen-2-yl)-3-methyl-4-(trifluoromethyl)aniline] | 0.7 nM | 0.472 nM | 656 nM
9 | Cc1c(F)c(N)cc(-c2nc3c4c(nc(OCC56CCN(C)C5COC6)nc4c2F)N2C[C@H]4CC[C@H](N4)[C@H]2[C@H](C)O3)c1C(F)(F)F (single isomer, unassigned) [258 (isomer 1)] | 8.1 nM | 5 nM | 1560 nM
10 | Cc1cc(N)c(F)c(-c2nc3c4c(nc(OCC5(CN6CCOCC6)CC5)nc4c2F)N2C[C@H]4CC[C@H](N4)[C@H]2[C@H](C)O3)c1C(F)(F)F [Compound 226, 2-Fluoro-3-((5S,5aS,6S,9R)-1-fluoro-5-methyl-12-((1-(morpholinomethyl)cyclopropyl)methoxy)-5a,6,7,8,9,10-hexahydro-5H-4-oxa-3,10a,11,13,14-pentaaza-6,9-methanonaphtho[1,8-ab]heptalene-2-yl)-5-methyl-4-(trifluoromethyl)aniline] | 1.2 nM | 0.86 nM | 568 nM
11 | Cc1c(F)c(N)cc(-c2nc3c4c(nc(OC[C@@]56CCCN5CC5(CC5(F)F)C6)nc4c2F)N2C[C@H]4CC[C@H](N4)[C@H]2[C@H](C)O3)c1C(F)(F)F (stereo partly drawn) [Compound 62, 5-((5S,5aS,6S,9R)-12-(((7a′S)-2,2-Difluorodihydro-1′H,3′H-spiro[cyclopropane-1,2′-pyrrolizin]-7a′(5′H)-yl)methoxy)-1-fluoro-5-methyl-5a,6,7,8,9,10-hexahydro-5H-4-oxa-3,10a,11,13,14-pentaaza[6,9]methanonaphtho[1,8-ab]heptalen-2-yl)-2-fluoro-3-methyl-4-(trifluoromethyl)aniline] | 0.3 nM | 0.261 nM | 111 nM
12 | Cc1c(F)c(N)cc(-c2nc3c4c(nc(OC[C@@]56CCCN5C[C@H](F)C6)nc4c2F)N2C[C@H]4CC[C@H](N4)[C@H]2[C@H](C(F)(F)F)O3)c1C(F)(F)F [Compound 247, 2-Fluoro-5-((5R,5aS,6S,9R)-1-fluoro-12-(((2R,7aS)-2-fluorotetrahydro-1H-pyrrolizin-7a(5H)-yl)methoxy)-5-(trifluoromethyl)-5a,6,7,8,9,10-hexahydro-5H-4-oxa-3,10a,11,13,14-pentaaza-6,9-methanonaphtho[1,8-ab]heptalene-2-yl)-3-methyl-4-(trifluoromethyl)aniline] | 1 nM | 1.64 nM | 643 nM
13 | Cc1cc(N)cc(-c2nc3c4c(nc(OC[C@]56CCCN5CC(F)(F)C6)nc4c2F)N2C[C@H]4CC[C@H](N4)[C@H]2[C@H](C)O3)c1C(F)(F)F [Compound 69, 3-((5S,5aS,6S,9R)-12-(((R)-2,2-Difluorotetrahydro-1H-pyrrolizin-7a(5H)-yl)methoxy)-1-fluoro-5-methyl-5a,6,7,8,9,10-hexahydro-5H-4-oxa-3,10a,11,13,14-pentaaza-6,9-methanonaphtho[1,8-ab]heptalen-2-yl)-5-methyl-4-(trifluoromethyl)aniline] | 21.3 nM | 6.42 nM | 1280 nM
14 | Cc1c(F)c(N)cc(-c2nc3c4c(nc(OCC5(CN6CCOCC6)CC5)nc4c2F)N2C[C@H]4CC[C@H](N4)[C@H]2[C@H](C(F)(F)F)O3)c1C(F)(F)F [Compound 249, 2-Fluoro-5-((5R,5aS,6S,9R)-1-fluoro-12-((1-(morpholinomethyl)cyclopropyl)methoxy)-5-(trifluoromethyl)-5a,6,7,8,9,10-hexahydro-5H-4-oxa-3,10a,11,13,14-pentaaza-6,9-methanonaphtho[1,8-ab]heptalene-2-yl)-3-methyl-4-(trifluoromethyl)aniline] | 1.1 nM | 1.37 nM | 417 nM
